In patent publication US4386103A, “Dichloroamino acid derivatives useful as potent germicidal and fungicidal agents” (Merck & Co., Inc., priority 1981, dated 1983):

Tests used:
Format in all cases: cell-based
[1] = system: Pseudamonas aeruginosa; test: Contact germicidal screen, Pseudamonas aeruginosa ATCC No. 14502
Method: (§1) The organisms used in the contact germicidal screen are all maintained as stock cultures on nutrient agar […] 4° C. They are transferred and biochemically diagnosed monthly. The five organisms used are: The media used are: […] Overnight cultures of the test organisms are grown in tryptose phosphate broth. After 15-16 hours, the cultures are centrifuged at […] for 15 minutes, and the supernatant replaced with fresh warm (37° C.) media. After two hours of incubation, the absorbance of the culture at 650 nm is determined and diluted with nutrient broth to 1×10^7 colony forming units per ml (using a previous determined standard curve: colony forming units/ml vs. absorbance at 650). The diluted cultures are maintained at 4°-8° C. throughout the screen. The compounds are weighed into sterile 100 ml volumetric flasks, and immediately before screening dissolved in one of the following buffers: 0.1 M NaOAc pH 4.6 or 0.1 M NaH2 PO4 pH 7.0. If solubility poses a problem, 10-30% methanol is used to effect solution. Two denaturing agents are also tested: […] Horse Serum restored with 100 ml distilled water and 10% Trition×100. When used, 2.5 ml of the denaturing agent is mixed with 2.5 ml of double strength test solution thirty minutes before the bacterial suspension is added. The screen is initiated when 0.2 ml of the bacterial suspension is added to 5.0 ml of the test solution contained in a sterile 25 ml glass stoppered flask. At intervals of 0.5, 2.5, 5.0, 10.0 and 15.0 minutes, a loopful of the inoculated test solution is subcultured into 5 ml of sterile nutrient broth and mixed with a vortex, the high dilution serving to stop the action of the compound. All of the subculture tubes are incubated at 37° C. and checked for signs of growth by turbidity at 1, 3, 5 and 7 days. The earliest subculture time at which no growth is present is considered the endpoint and is recorded as the sterilization time. An aliquot of 0.2 ml of the diluted culture is transferred to 5 ml of buffer to simulate 0.2 ml in 5 ml of test solution. (a) Purity: A loopful of the inoculated buffer is streaked onto nutrient agar to check colony morphology and lack of contaminants. (b) Viability: A loopful of the inoculated buffer is subcultured to 5 ml of nutrient broth as in the screen and incubated at 37° C. for 24 hours. (c) Dilution of the Test Solution: A loopful of the test solution is transferred to a 5 ml tube of nutrient broth, and a loopful of the inoculated buffer is transferred to the same tube of broth. […] (d) Purity of Organisms in the Test Solution: After the 15 minute subculture, a loopful of the inoculated test solution is streaked onto nutrient agar to insure that contamination has not occurred during the screen. (e) lack of Bactericidal Activity of Buffers and Other Solvents: Before a buffer or other solvent is used as a diluent, it is screened against the five organisms to insure that the buffer or solvent has no antibacterial activity itself.

[2] = system: Rhizopus oryzae; test: Contact fungicidal screen, Rhizopus oryzae; details: 0.1M NaOAc pH 4.6
Method: The organisms used in the Contact Fungicidal Screen are a dermatophyte, trychophyton mentagrophytes, frequently associated with athlete's foot; a yeast, Candida albican, causative agent of thrush and vaginitis; a phycomycete, Rhizopus oryzae, commonly known as black bread mold; an ascomycete, Aspergillus fumagatis, found in chicken droppings and causing lung infections; and another dermatophyte, Microsporum canis, which causes ringworm. These organisms are maintained as stock cultures at 4° C. on agar slants of the following composition: dextrose 2%, Neopeptone (Difco) 1%, agar 2%. Fluid medium of the same nutrient composition (without agar) was used to test the viability of the organisms after exposure to the fungicide. This medium is also known as Sabouraud's medium.
[…]. The mycelial mat is removed from the surface of the agar using a sterile spatula. It is transferred to a heat sterilized glass tissue grinder and macerated with 25 ml of sterile physiological saline. The suspension is then filtered through sterile glass wool. The density of the sporangia spore suspension is determined by counting in a hemacytometer. The suspension is stored at 4° C. until it was used, at which time it was diluted with sterile physiological saline to a density of 5×10^6 spores per ml.
The compounds are weighed into heat sterilized 100 ml volumetric flasks and immediately before screening dissolved in 0.1 M NaOAc pH 4.6 buffer (test solutions).
The Aspergillus, Candida, Microsporum and Rhizopus species are screened in a slightly different manner. Basically, the procedure for the Contact Germicidal Efficiency Screen is utilized. After the test solutions are made up, 5 ml aliquots are pipetted into heat sterilized 25 ml glass stoppered erlenmeyer flasks. The screen is initiated when 0.5 ml of the 5×10^6 cell (spore) per ml suspension is added to the flask containing 5 ml of the test solution. At intervals of 0.5, 2.5, 5.0, 10.0 and 15.0 minutes, a 4 mm loopful of the inoculated test solution is subcultured into 7 mL of sterile fluid Sabouraud's medium and mixed on a vortex, the high dilution serving to stop the action of the compound. The subculture tubes are incubated at 25°-30° C. for ten days with daily observation for mycelial growth. The earliest subculture time at which no growth is present is considered the endpoint and is recorded as the sterilization time.
To insure the viability of the culture, a 0.5 ml aliquot of the 5×10^6 cells (spores) per ml suspension is transferred to 5 ml of the pH 4.6 buffer. A loopful of the inoculated buffer is then subcultured to 7 ml of fluid Sabouraud's medium and incubated at 25°-30° C. for ten days. To insure that the dilution of the test solution into the subculture medium does stop the action, a loopful of the test solution and a loopful of the inoculated buffer are transferred into the same subculture tube. This tube is also incubated at 25°-30° C. for ten days.

[3] = system: Salmonella typhimurium; test: Contact germicidal screen, Salmonella typhimurium ATCC No. 13311
Method: as §1

[4] = 10.0+ PPM, 0.1M NaOAc pH 4.6, screened simultaneously with four other compounds
[5] = 291.4 PPM, Triton X100 (10% solution):pH 4.6 buffer 1:1
[6] = 291.4 PPM, horse serum:pH 4.6 buffer 1:1
[7] = 300 PPM with 50% Horse Serum, 0.1M NaOAc pH 4.6
[8] = 300 PPM with 50% Triton X100, 0.1M NaOAc pH 4.6
[9] = 1000 PPM with 50% Horse Serum, 0.1M NaOAc pH 4.6
[10] = 1024.4 PPM, 0.1M NaH2PO4 pH 7.0
[11] = 1042.0 PPM, horse serum:pH 4.6 buffer 1:1
[12] = 308.0 PPM, Triton X100 (10% solution):pH 4.6 buffer 1:1
[13] = 308.0 PPM, horse serum:pH 4.6 buffer 1:1
[14] = 1000.0 PPM, horse serum:pH 4.6 buffer 1:1
[15] = 1012.3 PPM, 0.1M NaH2PO4 pH 7.0
[16] = 338.7 PPM, horse serum:pH 4.6 buffer 1:1
[17] = 1024.0 PPM, horse serum:pH 4.6 buffer 1:1
[18] = 1070.3 PPM, 0.1M NaH2PO4 pH 7.0

SMILES | Sterilization Time [1, 4] [min] | Sterilization Time (summary) ([1]; 10 PPM, 0.1M NaOAc pH 4.6) [min] | Sterilization Time (summary) ([1]; 100 PPM, 0.1M NaOAc pH 4.6) [min] | Sterilization Time (summary) [1, 7] [min] | Sterilization Time (summary) [1, 8] [min] | Sterilization Time (summary) [1, 9] [min] | Sterilization Time (summary) ([1]; 1000 PPM, 0.1M NaOAc pH 4.6) [min] | Sterilization Time ([2]; 10 PPM) [min] | Sterilization Time ([2]; 100 PPM) [min] | Sterilization Time ([2]; 1000 PPM) [min] | Sterilization Time [3, 4] [min] | Sterilization Time (summary) ([3]; 10 PPM, 0.1M NaOAc pH 4.6) [min] | Sterilization Time (summary) ([3]; 100 PPM, 0.1M NaOAc pH 4.6) [min] | Sterilization Time (summary) [3, 7] [min] | Sterilization Time (summary) [3, 8] [min] | Sterilization Time (summary) [3, 9] [min] | Sterilization Time (summary) ([3]; 1000 PPM, 0.1M NaOAc pH 4.6) [min] | Sterilization Time [1, 12] [min] | Sterilization Time [3, 12] [min] | also measured
CC(C)(COC(=O)CCCC(=O)O)N(Cl)Cl [(V), 2-dichloramino-2-methylpropyl-hemiglutarate] | 5.0 | 5.0 | 2.5 | 15 | 2.5 | 10.0 | 0.5 | 15 | 15 | 15 | 2.5 | 2.5 | 0.5 | 10.0 | 0.5 | 2.5 | 0.5 |  |  | Sterilization Time ([1]; 10.0 PPM, 0.1M NaH2PO4 pH 7.0): 15 min; Sterilization Time ([1]; 10.0 PPM, 0.1M NaOAc pH 4.6): 10.0 min; Sterilization Time ([1]; 99.1 PPM, 0.1M NaOAc pH 4.6): 2.5 min; Sterilization Time ([1]; 106.7 PPM, 0.1M NaH2PO4 pH 7.0): 15 min; Sterilization Time [1, 5]: 2.5 min; Sterilization Time [1, 6]: 15 min; Sterilization Time ([1]; 911.8 PPM, 0.1M NaOAc pH 4.6): 0.5 min; Sterilization Time [1, 10]: 15 min; Sterilization Time [1, 11]: 10.0 min; Sterilization Time ([3]; 10.0 PPM, 0.1M NaH2PO4 pH 7.0): 15 min; Sterilization Time ([3]; 10.0 PPM, 0.1M NaOAc pH 4.6): 5.0 min; Sterilization Time ([3]; 99.1 PPM, 0.1M NaOAc pH 4.6): 0.5 min; Sterilization Time ([3]; 106.7 PPM, 0.1M NaH2PO4 pH 7.0): 15 min; Sterilization Time [3, 5]: 0.5 min; Sterilization Time [3, 6]: 10.0 min; Sterilization Time ([3]; 911.8 PPM, 0.1M NaOAc pH 4.6): 0.5 min; Sterilization Time [3, 10]: 5.0 min; Sterilization Time [3, 11]: 2.5 min
CC(C)(CCC(=O)O)N(Cl)Cl [(III), 4-Dichloroamino-4-methylvaleric acid] | 2.5 | 2.5 | 0.5 | 15 | 2.5 | 5.0 | 0.5 | 15 | 15 | 10.0 | 2.5 | 2.5 | 0.5 | 2.5 | 0.5 | 0.5 | 0.5 | 2.5 | 0.5 | Sterilization Time ([1]; 9.6 PPM, 0.1M NaOAc pH 4.6): 5.0 min; Sterilization Time ([1]; 9.7 PPM, 0.1M NaH2PO4 pH 7.0): 15 min; Sterilization Time ([1]; 102.2 PPM, 0.1M NaOAc pH 4.6): 0.5 min; Sterilization Time ([1]; 103.5 PPM, 0.1M NaH2PO4 pH 7.0): 15 min; Sterilization Time [1, 13]: 15 min; Sterilization Time [1, 14]: 5.0 min; Sterilization Time ([1]; 1007.7 PPM, 0.1M NaOAc pH 4.6): 0.5 min; Sterilization Time [1, 15]: 5.0 min; Sterilization Time ([3]; 9.6 PPM, 0.1M NaOAc pH 4.6): 2.5 min; Sterilization Time ([3]; 9.7 PPM, 0.1M NaH2PO4 pH 7.0): 15 min; Sterilization Time ([3]; 102.2 PPM, 0.1M NaOAc pH 4.6): 0.5 min; Sterilization Time ([3]; 103.5 PPM, 0.1M NaH2PO4 pH 7.0): 5.0 min; Sterilization Time [3, 13]: 2.5 min; Sterilization Time [3, 14]: 0.5 min; Sterilization Time ([3]; 1007.7 PPM, 0.1M NaOAc pH 4.6): 0.5 min; Sterilization Time [3, 15]: 0.5 min
CC(C)(COC(=O)CCC(=O)O)N(Cl)Cl [(IV), 2-Dichloroamino-2-methylpropylhemisuccinate] | 5.0 | 5.0 | 2.5 | 15 | 2.5 | 10.0 | 0.5 | 15 | 15 | 15 | 2.5 | 2.5 | 0.5 | 10.0 | 0.5 | 2.5 | 0.5 | 2.5 | 0.5 | Sterilization Time ([1]; 8.6 PPM, 0.1M NaOAc pH 4.6): 10.0 min; Sterilization Time ([1]; 9.8 PPM, 0.1M NaH2PO4 pH 7.0): 15 min; Sterilization Time ([1]; 106.2 PPM, 0.1M NaOAc pH 4.6): 2.5 min; Sterilization Time ([1]; 149.7 PPM, 0.1M NaH2PO4 pH 7.0): 15 min; Sterilization Time [1, 16]: 15 min; Sterilization Time ([1]; 1008.0 PPM, 0.1M NaOAc pH 4.6): 0.5 min; Sterilization Time [1, 17]: 10.0 min; Sterilization Time [1, 18]: 15 min; Sterilization Time ([3]; 8.6 PPM, 0.1M NaOAc pH 4.6): 5.0 min; Sterilization Time ([3]; 9.8 PPM, 0.1M NaH2PO4 pH 7.0): 15 min; Sterilization Time ([3]; 106.2 PPM, 0.1M NaOAc pH 4.6): 0.5 min; Sterilization Time ([3]; 149.7 PPM, 0.1M NaH2PO4 pH 7.0): 15.0 min; Sterilization Time [3, 16]: 10.0 min; Sterilization Time ([3]; 1008.0 PPM, 0.1M NaOAc pH 4.6): 0.5 min; Sterilization Time [3, 17]: 2.5 min; Sterilization Time [3, 18]: 0.5 min
